Laboratory results from US20050119338A1, “Combination of cytochome p450 dependent protease inhibitors” (priority 2001, published 2005).

Key:
[1] = tested on: HIV-1/LAI infected MT4 cells; type: cell-based; details: in combination with the compound of formula (4); three molar ratios; mean of three experiments
Protocol: In general, combinations of two compounds can act synergistically, in an additive way or antagonistically. […] For the current invention, this was assessed in an experimental setting where the potency of different ratios of the two HIV-protease inhibitors is measured. Results were plotted in an isobologram graph according to the method described by Chou and Talalay (Adv. Enzyme Regul. 22: 27-55, 1984).
The results were analyzed according to the isobologram method described by Chou and Talalay (1984).
The results are presented as the mean of three separate experiments. The combination index (CI) for each combination was determined.

[2] = Influence of ritonavir on the pharmacokinetics of a single dose of the compound of formula (4); details: human, in vivo; for AUC: mean ± SD
[3] = Safety and tolerability (adverse events, maculopapular rash) in clinical testing
[4] = Panel E (1200 mg/200 mg RTV o.d.)

SMILES: CC(C)CN(C[C@@H](O)[C@H](Cc1ccccc1)NC(=O)O[C@H]1CCOC1)S(=O)(=O)c1ccc(N)cc1 [amprenavir]
- combination index (CI) [1]: 0.65-0.77

SMILES: CC(C)c1nc(CN(C)C(=O)N[C@H](C(=O)N[C@@H](Cc2ccccc2)C[C@H](O)[C@H](Cc2ccccc2)NC(=O)OCc2cncs2)C(C)C)cs1 [ritonavir]
- combination index (CI) [1]: 0.66-0.81

SMILES: CC(C)CN(C[C@@H](O)[C@H](Cc1ccccc1)NC(=O)O[C@H]1CO[C@H]2OCC[C@H]21)S(=O)(=O)c1ccc(N)cc1 [compound of formula (4), carbamic acid [(1S,2R)-3-[[(4-aminophenyl)sulfonyl](2-methylpropyl)amino]-2-hydroxy-1-(phenylmethyl)propyl]-(3R,3aS,6aR)hexahydrofuro[2,3-b]furan-3-yl ester]
- Tmax [2]: 60 min
- Tmax ([2]; 800 mg): 48 min
- AUC ([2]; 800 mg, Session I: single 800 mg dose alone): 10700 ± 3130 ng·h/mL
- AUC ([2]; 800 mg, Session II: single 800 mg dose with RTV): 98700 ± 38500 ng·h/mL
- subjects who developed maculopapular rash ([3]; 1200 mg t.i.d. alone): 4 out of 6
- itching of the body and/or redness of the skin [3, 4]: two other volunteers
- maculopapular rash [3, 4]: one volunteer with a clear maculopapular rash
- maculopapular rash ([3]; volunteers in panels A to D (with ritonavir)): No maculopapular rash was observed

SMILES: Cc1cccc(C)c1OCC(=O)N[C@@H](Cc1ccccc1)[C@@H](O)C[C@H](Cc1ccccc1)NC(=O)[C@H](C(C)C)N1CCCNC1=O [lopinavir]
- combination index (CI) [1]: 0.85-0.95

SMILES: Cc1c(O)cccc1C(=O)N[C@@H](CSc1ccccc1)[C@H](O)CN1C[C@H]2CCCC[C@H]2C[C@H]1C(=O)NC(C)(C)C [nelfinavir]
- combination index (CI) [1]: 0.61-0.80

SMILES: CC(C)(C)NC(=O)[C@@H]1C[C@@H]2CCCC[C@@H]2CN1C[C@@H](O)[C@H](Cc1ccccc1)NC(=O)[C@H](CC(N)=O)NC(=O)c1ccc2ccccc2n1 [saquinavir]
- combination index (CI) [1]: 0.94-1.0

SMILES: CC(C)(C)NC(=O)[C@@H]1CN(Cc2cccnc2)CCN1C[C@@H](O)C[C@@H](Cc1ccccc1)C(=O)N[C@H]1c2ccccc2C[C@H]1O [indinavir]
- combination index (CI) [1]: 0.87-0.92
